Assay results reported in paper PMC9497135, “Structure-Based Study to Overcome Cross-Reactivity of Novel Androgen Receptor Inhibitors” (Cells, 2022).

Biological target: T1, Androgen Receptor ABS (Rattus norvegicus, UniProt P15207)
T1 construct: purchased
T1 sequence (P15207 647-902 limits assumed): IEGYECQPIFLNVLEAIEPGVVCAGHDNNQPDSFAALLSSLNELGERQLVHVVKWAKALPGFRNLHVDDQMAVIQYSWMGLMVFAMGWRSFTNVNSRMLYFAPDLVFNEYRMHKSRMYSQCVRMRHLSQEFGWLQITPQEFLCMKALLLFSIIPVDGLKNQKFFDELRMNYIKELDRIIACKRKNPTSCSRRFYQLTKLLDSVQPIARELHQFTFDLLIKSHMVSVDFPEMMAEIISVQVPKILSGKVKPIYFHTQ
Test: Androgen (DHT) displacement, Polar Screen Androgen Receptor Competitor Green Assay Kit
Type: binding
Details: fluorescence polarization kit
Procedure: Androgen displacement was assessed with the Polar Screen Androgen Receptor Competitor Green Assay Kit as per the instructions of the manufacturer.

## COc1c(F)cccc1-c1csc(N2CCOCC2)n1 [VPC14368, 4-(4-(3-fluoro-2-methoxyphenyl)thiazol-2-yl)morpholine]
  Androgen Displacement (Yes/No): Yes
